One series has as its target Motilin receptor (Homo sapiens, UniProt O43193). Kind of series: Agonist activity at human recombinant motilin receptor expressed in CHO cells by FLIPR assay. It counts as functional, cell-based.
The target of a further series is Cytochrome P450 2D6 (Homo sapiens, UniProt P10635). Briefly: Inhibition of human recombinant CYP2D6. The format is ADME.
For series [1], the target named is T1, Growth hormone secretagogue receptor type 1 (Homo sapiens, UniProt Q92847). Kind of series: Agonist activity at human ghrelin receptor. The format is functional.
T1 sequence (Q92847 whole entry): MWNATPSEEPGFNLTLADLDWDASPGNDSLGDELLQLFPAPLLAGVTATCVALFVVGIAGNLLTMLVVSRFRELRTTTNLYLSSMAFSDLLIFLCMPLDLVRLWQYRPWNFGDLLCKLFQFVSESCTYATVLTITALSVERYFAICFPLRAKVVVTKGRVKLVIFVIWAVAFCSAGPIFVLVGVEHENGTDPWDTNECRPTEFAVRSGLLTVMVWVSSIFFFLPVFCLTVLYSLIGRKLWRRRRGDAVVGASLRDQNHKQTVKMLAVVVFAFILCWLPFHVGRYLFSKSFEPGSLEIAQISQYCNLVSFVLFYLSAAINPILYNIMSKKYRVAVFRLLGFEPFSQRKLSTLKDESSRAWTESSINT
The target of series [2] is 5-hydroxytryptamine receptor 6 (Homo sapiens, UniProt P50406). Briefly: Agonist activity at 5HT6 receptor. The format is functional.
Chain of 5-hydroxytryptamine receptor 6 (P50406 whole entry): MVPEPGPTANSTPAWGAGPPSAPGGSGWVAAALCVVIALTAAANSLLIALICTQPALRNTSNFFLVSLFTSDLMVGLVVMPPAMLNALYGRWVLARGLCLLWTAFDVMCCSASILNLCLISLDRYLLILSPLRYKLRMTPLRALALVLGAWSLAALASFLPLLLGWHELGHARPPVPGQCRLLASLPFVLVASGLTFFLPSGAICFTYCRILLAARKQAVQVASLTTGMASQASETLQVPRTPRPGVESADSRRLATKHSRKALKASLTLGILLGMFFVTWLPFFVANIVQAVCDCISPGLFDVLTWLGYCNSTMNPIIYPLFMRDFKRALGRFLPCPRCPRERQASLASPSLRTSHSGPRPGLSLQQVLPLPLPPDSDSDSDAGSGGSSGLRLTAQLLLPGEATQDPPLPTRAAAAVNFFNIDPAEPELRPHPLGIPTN
The next series concerns the target D(2) dopamine receptor (Homo sapiens, UniProt P14416). Briefly: Agonist activity at dopamine D2 receptor. It counts as functional.
Another series deals with D(3) dopamine receptor (Homo sapiens, UniProt P35462). Kind of series: Agonist activity at dopamine D3 receptor. It counts as functional.
Chain of D(3) dopamine receptor (P35462 whole entry): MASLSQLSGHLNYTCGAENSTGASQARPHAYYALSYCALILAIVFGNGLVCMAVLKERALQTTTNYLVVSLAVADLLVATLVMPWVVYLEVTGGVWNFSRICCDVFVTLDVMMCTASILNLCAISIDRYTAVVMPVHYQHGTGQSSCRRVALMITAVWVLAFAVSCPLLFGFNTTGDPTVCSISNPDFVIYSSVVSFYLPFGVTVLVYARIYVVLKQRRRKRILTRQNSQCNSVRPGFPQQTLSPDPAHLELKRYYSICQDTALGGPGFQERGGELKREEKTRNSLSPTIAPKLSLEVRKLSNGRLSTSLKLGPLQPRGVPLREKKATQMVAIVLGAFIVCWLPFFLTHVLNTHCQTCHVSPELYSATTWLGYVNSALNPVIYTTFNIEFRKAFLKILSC
The test system of series [3] is Liver microsomes. Kind of series: Intrinsic clearance in rat liver microsomes after 30 mins. It counts as ADME, Microsome. Conditions: 0.5 h.
For series [4], the system named is Liver microsomes. Kind of series: Intrinsic clearance in human liver microsomes after 30 mins. Conditions: 0.5 h. The format is ADME, Microsome.
Series [5] has as its target T1, Growth hormone secretagogue receptor type 1. Briefly: Intrinsic activity at human ghrelin receptor relative to ghrelin.

Bounds are passed on as bounds.

Chain of D(2) dopamine receptor (P14416 whole entry): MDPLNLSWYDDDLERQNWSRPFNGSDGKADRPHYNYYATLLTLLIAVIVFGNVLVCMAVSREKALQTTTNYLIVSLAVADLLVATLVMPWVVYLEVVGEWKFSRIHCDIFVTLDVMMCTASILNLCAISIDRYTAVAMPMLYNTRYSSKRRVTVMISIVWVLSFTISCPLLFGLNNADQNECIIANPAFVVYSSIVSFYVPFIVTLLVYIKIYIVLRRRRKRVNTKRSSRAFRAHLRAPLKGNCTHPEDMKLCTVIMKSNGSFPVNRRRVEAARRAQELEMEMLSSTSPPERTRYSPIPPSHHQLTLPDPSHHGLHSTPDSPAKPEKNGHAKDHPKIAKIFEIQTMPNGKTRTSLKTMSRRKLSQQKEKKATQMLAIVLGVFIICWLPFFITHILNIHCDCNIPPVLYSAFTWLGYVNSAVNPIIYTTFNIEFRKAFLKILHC
Chain of Cytochrome P450 2D6 (P10635 whole entry): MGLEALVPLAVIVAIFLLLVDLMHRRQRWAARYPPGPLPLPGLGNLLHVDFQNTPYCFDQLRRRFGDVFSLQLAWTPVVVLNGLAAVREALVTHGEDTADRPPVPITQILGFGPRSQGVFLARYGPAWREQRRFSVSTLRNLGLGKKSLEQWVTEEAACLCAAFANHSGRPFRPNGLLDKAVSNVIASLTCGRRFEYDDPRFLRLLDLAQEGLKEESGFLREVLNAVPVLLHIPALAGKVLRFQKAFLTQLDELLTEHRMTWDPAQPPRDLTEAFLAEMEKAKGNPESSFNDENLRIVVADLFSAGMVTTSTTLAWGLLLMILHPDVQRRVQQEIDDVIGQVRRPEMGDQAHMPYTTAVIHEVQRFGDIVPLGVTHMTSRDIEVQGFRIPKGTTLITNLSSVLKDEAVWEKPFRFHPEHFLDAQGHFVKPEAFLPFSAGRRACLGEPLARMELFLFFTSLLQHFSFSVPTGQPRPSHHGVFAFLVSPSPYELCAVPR
Chain of Motilin receptor (O43193 whole entry): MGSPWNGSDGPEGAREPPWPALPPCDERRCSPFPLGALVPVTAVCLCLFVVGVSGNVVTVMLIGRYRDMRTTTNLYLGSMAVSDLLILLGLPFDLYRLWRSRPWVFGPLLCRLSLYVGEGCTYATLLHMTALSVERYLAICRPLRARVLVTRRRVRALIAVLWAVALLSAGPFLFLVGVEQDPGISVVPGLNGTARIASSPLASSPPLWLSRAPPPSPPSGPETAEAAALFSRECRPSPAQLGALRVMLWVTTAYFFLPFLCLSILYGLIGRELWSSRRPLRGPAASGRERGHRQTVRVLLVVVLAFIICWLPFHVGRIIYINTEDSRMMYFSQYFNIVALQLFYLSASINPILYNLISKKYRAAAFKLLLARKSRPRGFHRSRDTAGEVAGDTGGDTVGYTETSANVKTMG

In the case of `O=C(Nc1ccc(F)cc1)c1ccc(S(=O)(=O)Cc2ccc3c(c2)CCNCC3)cn1`, the EC50 at Motilin receptor was 2000 nM.

In the case of `O=S(=O)(Cc1ccc2c(c1)CCNCC2)c1ccc(Oc2ccc(F)cc2)nc1`, the 50% inhibitory concentration (IC50) on Cytochrome P450 2D6 is 1700 nM. The EC50 on Motilin receptor is 501 nM; in series [1], above 1000 nM.

On to `CCCCc1ccc(S(=O)(=O)Nc2ccc3c(c2)CCN(CC2CCOC2)CC3)cc1` (centres undefined), for which the EC50 at Motilin receptor was 2000 nM; in series [1], above 1000 nM.

Take `CN1CCOc2cc(S(=O)(=O)Nc3ccc4c(c3)CCN(Cc3cc[nH]n3)CC4)ccc21`: the Ki in series [2] is 15.8 nM; at D(2) dopamine receptor, above 1000 nM; on D(3) dopamine receptor, 631 nM. Besides, the EC50 at Motilin receptor was 31.6 nM; in [1], above 10000 nM.

As to `CC(C)(C)c1ccc(S(=O)(=O)Cc2ccc3c(c2)CCNCC3)cc1`, the EC50 at Motilin receptor was 3160 nM; in series [1] it was above 10000 nM.

As for `CN(Cc1ccc2c(c1)CCNCC2)C(=O)c1ccc(N2CCOCC2)nc1`, the EC50 on Motilin receptor was above 12600 nM.

Consider `O=S(=O)(Cc1ccccc1)Nc1ccc2c(c1)CCN(Cc1ccn[nH]1)CC2`, for which the EC50 at Motilin receptor was 2510 nM; in series [1], above 1000 nM.

As for `O=S(=O)(Cc1ccc2c(c1)CCNCC2)c1ccc(-c2ccc(F)c(F)c2)cc1`, the CL in the series with Liver microsomes [3] is 1.1 mL/min/g; in the series on Liver microsomes [4], 1 mL/min/g. Besides, the 50% inhibitory concentration (IC50) on Cytochrome P450 2D6 is 100 nM. The EC50 is 25.1 nM at Motilin receptor and above 1000 nM in series [1].

Regarding `O=S(=O)(Cc1ccc2c(c1)CCNCC2)c1ccc(N2CCCCC2)nc1`, the half-maximal inhibitory concentration (IC50) on Cytochrome P450 2D6 amounted to 1100 nM. Further, the values for the concentration for a half-maximal effect (EC50) (on Motilin receptor; in [1]) were 63.1 nM and above 1000 nM, respectively.

As for `CN(C(=O)c1ccc(N2CCOCC2)nc1)c1ccc2c(c1)CCNCC2`, the EC50 at Motilin receptor is above 12600 nM.

For `CC(C)Oc1ccc(S(=O)(=O)Nc2ccc3c(c2)CCN(Cc2cc[nH]n2)CC3)cc1`, the inhibition constant Ki is 200 nM in series [2], 631 nM on D(2) dopamine receptor and 20 nM on D(3) dopamine receptor. Further, the IC50 on Cytochrome P450 2D6 amounted to 1300 nM. Moreover, the EC50 on Motilin receptor was 3.98 nM; in series [1], 158 nM. Further, the Intrinsic activity in [5] worked out at 0.6.

For the molecule `CC1(C)CCc2cc(S(=O)(=O)Nc3ccc4c(c3)CCN(Cc3cc[nH]n3)CC4)ccc2O1`, the IC50 on Cytochrome P450 2D6 was determined as 500 nM. Further, the EC50 at Motilin receptor is 5.01 nM; in [1] it was 631 nM.

With `O=S(=O)(Nc1ccc2c(c1)CCN(Cc1cc[nH]n1)CC2)c1ccc(Cl)cc1`, the EC50 at Motilin receptor was 794 nM; in series [1] it was above 10000 nM.

For `CCCCc1ccc(S(=O)(=O)Nc2ccc3c(c2)CCN(Cc2ccccc2)CC3)cc1`, on Motilin receptor, the 50% effective concentration (EC50) is above 3160 nM.

Regarding `O=C(Nc1ccc2c(c1)CCNCC2)c1ccc(N2CCOCC2)nc1`, at Motilin receptor, the concentration for a half-maximal effect (EC50) was above 12600 nM.

As for `CCCCc1ccc(S(=O)(=O)Nc2ccc3c(c2)CCN(Cc2ccc(NC(C)=O)s2)CC3)cc1`, the half-maximal effective concentration (EC50) is 50.1 nM on Motilin receptor and above 1000 nM in [1].

In the case of `O=S(=O)(Cc1ccc2c(c1)CCNCC2)c1ccc(-c2ccc(Cl)cc2)cc1`, the CL in the series on Liver microsomes [3] was below 0.5 mL/min/g; in the series on Liver microsomes [4], below 1 mL/min/g. Further, on Cytochrome P450 2D6, the IC50 was below 100 nM. The figures for the 50% effective concentration (EC50) (at Motilin receptor; in series [1]) were 20 nM and above 10000 nM, respectively.

As to `CCCCc1ccc(S(=O)(=O)Nc2ccc3c(c2)CCN(Cc2cnc(C)[nH]2)CC3)cc1`, the EC50 on Motilin receptor is 63.1 nM; in [1], 20 nM. Besides, the Intrinsic activity in series [5] is 0.5.

As to `CCCCc1ccc(S(=O)(=O)Nc2ccc3c(c2)CCN(C2CCCC2)CC3)cc1`, the EC50 was 200 nM on Motilin receptor and above 1000 nM in series [1].

For `CCCCc1ccc(S(=O)(=O)Nc2ccc3c(c2)CCN(Cc2cncn2C)CC3)cc1`, on Motilin receptor, the half-maximal effective concentration (EC50) is 3160 nM.

Consider `CC(C)S(=O)(=O)Nc1ccc2c(c1)CCN(Cc1ccn[nH]1)CC2`, for which the half-maximal inhibitory concentration (IC50) at Cytochrome P450 2D6 is 16000 nM. The EC50 on Motilin receptor is above 12600 nM.

With `O=S(=O)(Nc1ccc(N2CCOCC2)nc1)c1ccc2c(c1)CCNCC2`, the EC50 on Motilin receptor is 2510 nM.

For `CCCCc1ccc(S(=O)(=O)Nc2ccc3c(c2)CCN(Cc2cccc(NC(C)=O)c2)CC3)cc1`, the results for the EC50 (on Motilin receptor; in series [1]) were 501 nM and above 10000 nM, respectively.

With `O=S(=O)(Cc1ccc2c(c1)CCNCC2)c1ccccc1`, the results for the EC50 (at Motilin receptor; in series [1]) were above 12600 nM and above 10000 nM, respectively.

Turning to `O=C(Nc1ccc(N2CCOCC2)nc1)c1ccc2c(c1)CCNCC2`, the half-maximal effective concentration (EC50) on Motilin receptor is above 12600 nM.

With `CCCCc1ccc(S(=O)(=O)Nc2ccc3c(c2)CCN(C2CCN(C)CC2)CC3)cc1`, the concentration for a half-maximal effect (EC50) on Motilin receptor is above 12600 nM.

For the molecule `N#Cc1ccc(-c2ccc(S(=O)(=O)Cc3ccc4c(c3)CCNCC4)cn2)cc1`, the EC50 at Motilin receptor was 158 nM; in series [1], above 1000 nM.

`CCCCc1ccc(S(=O)(=O)Nc2ccc3c(c2)CCN(C2CCN(C(C)=O)CC2)CC3)cc1`: the EC50 at Motilin receptor is above 2510 nM.

With `O=S(=O)(Cc1ccc2c(c1)CCNCC2)c1ccc2ccccc2c1`, the concentration giving a half-maximal response (EC50) is 1260 nM at Motilin receptor and above 10000 nM in series [1].

For the molecule `CCCCc1ccc(S(=O)(=O)Nc2ccc3c(c2)CCNCC3)cc1`, the concentration giving a half-maximal response (EC50) at Motilin receptor is 1580 nM.

For `O=S(=O)(Cc1ccc2c(c1)CCNCC2)c1ccc(Nc2ccc(F)cc2)nc1`, the CL with Liver microsomes [3] was below 0.5 mL/min/g; in the series on Liver microsomes [4], below 1 mL/min/g. Further, the concentration for half-maximal inhibition (IC50) at Cytochrome P450 2D6 was 300 nM. For the same molecule, the figures for the 50% effective concentration (EC50) (at Motilin receptor; in series [1]) were 20 nM and above 1000 nM, respectively.

Regarding `O=S(=O)(Cc1ccc2c(c1)CCNCC2)c1ccc(N2CCOCC2)nc1`, the CL in the series with Liver microsomes [3] was below 1 mL/min/g; in the series on Liver microsomes [4], below 0.5 mL/min/g. At Cytochrome P450 2D6, the IC50 is 16000 nM. Besides, the EC50 at Motilin receptor is 501 nM; in series [1], above 1000 nM.

`Cc1ccc(S(=O)(=O)Nc2ccc3c(c2)CCN(Cc2cc[nH]n2)CC3)cc1Cl` came in with an Intrinsic activity in [5] of 0.7.

With `Cc1ccc(S(=O)(=O)Nc2ccc3c(c2)CCN(Cc2ccn[nH]2)CC3)cc1Cl`, the inhibition constant (Ki) in series [2] was 6.31 nM; on D(2) dopamine receptor it was 398 nM; at D(3) dopamine receptor, 100 nM. Moreover, the concentration giving a half-maximal response (EC50) at Motilin receptor is 39.8 nM; in series [1], 79.4 nM.

For the molecule `CC(C)Oc1ccc(S(=O)(=O)Cc2ccc3c(c2)CCNCC3)cn1`, at Cytochrome P450 2D6, the IC50 came out at 1600 nM. The EC50 at Motilin receptor is 158 nM; in series [1] it was above 1000 nM.

Regarding `CCCCc1ccc(S(=O)(=O)Nc2ccc3c(c2)CCN(Cc2cnc[nH]2)CC3)cc1`, the concentration giving a half-maximal response (EC50) is 7.94 nM at Motilin receptor and 3.98 nM in [1]. Further, in series [5], the Intrinsic activity is 0.4.

Consider `CCCCc1ccc(S(=O)(=O)Cc2ccc3c(c2)CCNCC3)cc1`, for which the EC50 on Motilin receptor was 126 nM.

For the molecule `CCCCc1ccc(S(=O)(=O)Nc2ccc3c(c2)CCN(Cc2[nH]cnc2C)CC3)cc1`, the EC50 on Motilin receptor is 3.16 nM; in series [1], 3.98 nM. Besides, the Intrinsic activity in series [5] is 0.6.

Turning to `O=S(=O)(Cc1ccc2c(c1)CCNCC2)c1ccc(-c2ccc(Cl)cc2)nc1`, the CL in the series with Liver microsomes [3] and with Liver microsomes [4] was below 1 mL/min/g throughout. The IC50 on Cytochrome P450 2D6 was below 100 nM. The half-maximal effective concentration (EC50) on Motilin receptor is 7.94 nM; in [1] it was above 1000 nM.

Regarding `CCCCc1ccc(S(=O)(=O)N(C)c2ccc3c(c2)CCNCC3)cc1`, the EC50 on Motilin receptor is 2510 nM.

For the molecule `O=S(=O)(Nc1ccc2c(c1)CCNCC2)c1ccc(N2CCOCC2)nc1`, the 50% effective concentration (EC50) at Motilin receptor is 1580 nM.

Take `CC(C)COc1ccc(S(=O)(=O)Cc2ccc3c(c2)CCNCC3)cn1`: the results for the EC50 (on Motilin receptor; in [1]) were 39.8 nM and above 1000 nM, respectively.

As for `CCCCc1ccc(S(=O)(=O)Nc2ccc3c(c2)CCN(Cc2cccs2)CC3)cc1`, the EC50 at Motilin receptor is 2510 nM; in [1] it was above 1000 nM.

The EC50 is the midpoint of the concentration-response curve. Usually IC50 stands for the concentration needed to halve the response being measured. A word on the Ki: it is the dissociation constant of the complex between target and ligand, obtained from inhibition or displacement.

These data come from ChEMBL document CHEMBL1154336, “The discovery and optimisation of benzazepine sulfonamide and sulfones as potent agonists of the motilin receptor” (Bioorg Med Chem Lett, 2009).
